# Key:
# SF-295 = experiment: NCI human tumor cell panel: SF-295 (CNS Cancer); format: cell-based; conditions: SF-295, CNS Cancer
# MCF7 = experiment: NCI human tumor cell panel: MCF7 (Breast Cancer); format: cell-based; conditions: MCF7, Breast Cancer
# MCF7/ADR-RES = experiment: NCI human tumor cell panel: MCF7/ADR-RES (Breast Cancer); format: cell-based; conditions: Breast Cancer
# BT-549 = experiment: NCI human tumor cell panel: BT-549 (Breast Cancer); format: cell-based; conditions: BT-549, Breast Cancer
# UO-31 = experiment: NCI human tumor cell panel: UO-31 (Renal Cancer); format: cell-based; conditions: UO-31, Renal Cancer
# SN12C = experiment: NCI human tumor cell panel: SN12C (Renal Cancer); format: cell-based; conditions: Renal Cancer
# OVCAR-5 = experiment: NCI human tumor cell panel: OVCAR-5 (Ovarian Cancer); format: cell-based; conditions: OVCAR-5, Ovarian Cancer
# MDA-MB-435 = experiment: NCI human tumor cell panel: MDA-MB-435 (Breast Cancer); format: cell-based; conditions: MDA-MB-435, Breast Cancer
# M14 = experiment: NCI human tumor cell panel: M14 (Melanoma); format: cell-based; conditions: M14, Melanoma
# SW-620 = experiment: NCI human tumor cell panel: SW-620 (Colon Cancer); format: cell-based; conditions: SW-620, Colon Cancer
# RPMI-8226 = experiment: NCI human tumor cell panel: RPMI-8226 (Leukemia); format: cell-based; conditions: RPMI-8226, Leukemia
# NCI-H460 = experiment: NCI human tumor cell panel: NCI-H460 (Non-Small Cell Lung Cancer); format: cell-based; conditions: NCI-H460, Non-Small Cell Lung Cancer
# HOP-62 = experiment: NCI human tumor cell panel: HOP-62 (Non-Small Cell Lung Cancer); format: cell-based; conditions: HOP-62, Non-Small Cell Lung Cancer, read-out: Log10 TGI (converted)
# UACC-62 = experiment: NCI human tumor cell panel: UACC-62 (Melanoma); format: cell-based; conditions: UACC-62, Melanoma
# DU-145 = experiment: NCI human tumor cell panel: DU-145 (Prostate Cancer); format: cell-based; conditions: DU-145, Prostate Cancer
# SF-539 = experiment: NCI human tumor cell panel: SF-539 (CNS Cancer); format: cell-based; conditions: SF-539, CNS Cancer
# HS 578T = experiment: NCI human tumor cell panel: HS 578T (Breast Cancer); format: cell-based; conditions: Breast Cancer
# UACC-257 = experiment: NCI human tumor cell panel: UACC-257 (Melanoma); format: cell-based; conditions: UACC-257, Melanoma
# OVCAR-8 = experiment: NCI human tumor cell panel: OVCAR-8 (Ovarian Cancer); format: cell-based; conditions: OVCAR-8, Ovarian Cancer
# SK-MEL-5 = experiment: NCI human tumor cell panel: SK-MEL-5 (Melanoma); format: cell-based; conditions: SK-MEL-5, Melanoma
# 786-0 = experiment: NCI human tumor cell panel: 786-0 (Renal Cancer); format: cell-based; conditions: 786-0, Renal Cancer
# SR = experiment: NCI human tumor cell panel: SR (Leukemia); format: cell-based; conditions: Leukemia
# LOX IMVI = experiment: NCI human tumor cell panel: LOX IMVI (Melanoma); format: cell-based; conditions: Melanoma
# NCI-H23 = experiment: NCI human tumor cell panel: NCI-H23 (Non-Small Cell Lung Cancer); format: cell-based; conditions: NCI-H23, Non-Small Cell Lung Cancer, read-out: Log10 TGI (converted)
# CCRF-CEM = experiment: NCI human tumor cell panel: CCRF-CEM (Leukemia); format: cell-based; conditions: Leukemia
# HOP-92 = experiment: NCI human tumor cell panel: HOP-92 (Non-Small Cell Lung Cancer)
# IGROV1 = experiment: NCI human tumor cell panel: IGROV1 (Ovarian Cancer); format: cell-based; conditions: IGROV-1, IGROV1, Ovarian Cancer
# SNB-75 = experiment: NCI human tumor cell panel: SNB-75 (CNS Cancer); format: cell-based; conditions: SNB-75, CNS Cancer
# SK-MEL-2 = experiment: NCI human tumor cell panel: SK-MEL-2 (Melanoma); format: cell-based; conditions: SK-MEL-2, Melanoma
# MDA-N = experiment: NCI human tumor cell panel: MDA-N (Breast Cancer); format: cell-based; conditions: Breast Cancer
# [1] = read-out: Log10 GI50 (converted)
# [2] = read-out: Log10 TGI (converted)
compound,measurement,setting,value
O=Cc1ccc(-c2ccc(-c3ccc(C=O)[se]3)s2)[se]1 [NSC 676630],GI50,SF-295; [1],> 100 µM
same,IC (TGI),SF-295; [2],> 100 µM
same,GI50,MCF7; [1],0.676 µM
same,IC (TGI),MCF7; [2],> 100 µM
same,GI50,MCF7/ADR-RES; [1],79.4 µM
same,IC (TGI),MCF7/ADR-RES; [2],> 100 µM
same,GI50,BT-549; [1],63.1 µM
same,IC (TGI),BT-549; [2],> 100 µM
same,GI50,UO-31; [1],> 100 µM
same,IC (TGI),UO-31; [2],> 100 µM
same,GI50,SN12C; [1],> 100 µM
same,IC (TGI),SN12C; [2],> 100 µM
same,GI50,OVCAR-5; [1],0.132 µM
same,IC (TGI),OVCAR-5; [2],0.447 µM
same,GI50,MDA-MB-435; [1],> 100 µM
same,IC (TGI),MDA-MB-435; [2],> 100 µM
same,GI50,M14; [1],> 100 µM
same,IC (TGI),M14; [2],> 100 µM
same,GI50,SW-620; [1],> 100 µM
same,IC (TGI),SW-620; [2],> 100 µM
same,GI50,RPMI-8226; [1],> 100 µM
same,IC (TGI),RPMI-8226; read-out: Log10 TGI,> 100 µM
same,GI50,NCI-H460; [1],0.129 µM
same,IC (TGI),NCI-H460; [2],> 100 µM
same,IC (TGI),HOP-62,> 100 µM
same,GI50,UACC-62; [1],0.263 µM
same,IC (TGI),UACC-62; [2],> 100 µM
same,GI50,DU-145; [1],> 100 µM
same,IC (TGI),DU-145; [2],> 100 µM
same,GI50,SF-539; [1],> 100 µM
same,IC (TGI),SF-539; [2],> 100 µM
same,GI50,HS 578T; [1],> 100 µM
same,IC (TGI),HS 578T; [2],> 100 µM
same,GI50,UACC-257; [1],0.275 µM
same,IC (TGI),UACC-257; [2],0.676 µM
same,GI50,OVCAR-8; [1],33.1 µM
same,IC (TGI),OVCAR-8; [2],> 100 µM
same,GI50,SK-MEL-5; [1],> 100 µM
same,IC (TGI),SK-MEL-5; [2],> 100 µM
same,GI50,786-0; [1],> 100 µM
same,IC (TGI),786-0; [2],> 100 µM
same,GI50,SR; [1],> 100 µM
same,IC (TGI),SR; [2],> 100 µM
same,GI50,LOX IMVI; [1],> 100 µM
same,IC (TGI),LOX IMVI; [2],> 100 µM
same,IC (TGI),NCI-H23,> 100 µM
same,GI50,CCRF-CEM; [1],> 100 µM
same,IC (TGI),CCRF-CEM; [2],> 100 µM
same,GI50,"HOP-92; HOP-92, read-out: Log10 GI50 (converted)",> 100 µM
same,IC (TGI),"HOP-92; HOP-92, read-out: Log10 TGI",> 100 µM
same,GI50,IGROV1; [1],1.48 µM
same,IC (TGI),IGROV1; [2],> 100 µM
same,GI50,SNB-75; [1],67.6 µM
same,IC (TGI),SNB-75; [2],> 100 µM
same,GI50,SK-MEL-2; [1],> 100 µM
same,IC (TGI),SK-MEL-2; [2],> 100 µM
same,GI50,MDA-N; [1],> 100 µM
same,IC (TGI),MDA-N; [2],> 100 µM
